These results are taken from US20140186872A1, “BISACODYL AND ITS ANALOGUES AS DRUGS FOR USE IN THE TREATMENT OF CANCER” (CENTRE NATIONAL DE LA RECHERCHE SCIENTIFIQUE- CNRS, priority 2011, published 2014).

Where a name gives a salt, the structure may show the parent alone.

The subject of data set [1] is quiescent TG1 glioblastoma stem cells. Description: ATP-Glo (Cell Titer Glo) cell viability, dose/response, quiescent TG1 cells. Format: cell-based, human. The settings on record: 24 h; for EC50: Homo sapiens, Glioblastoma stem cell, TG1-A Q, experimental protocol of Example 12, ATP-Glo, read-out: EC50 Quiescent TG1; for effect on survival of quiescent TG1 cells (words): own conditioned medium. As to the method:
The TG1 cells were put into quiescence by keeping the cells in culture without changing the medium from 9 to 16 days. The state of quiescence was verified by non-incorporation of nucleotides into the DNA of the cells (see example 9).
The quiescent cells were put back in 1 mL of conditioned medium, dissociated mechanically by pipetting up and down 100 times with a P1000 micropipette preset to 400 μl and counted with Trypan Blue, after dilution in conditioned medium, to obtain a final suspension of 8.10^5 cells/mL.
(§1) 50 μl of solution containing cells was deposited per well in a 96-well plate (Greiner #655090).
(§2) The test compounds, in solution of 100% of DMSO were diluted in culture medium: in the absence of DMSO (medium 0% DMSO) or in the presence of 2% of DMSO (medium 2% DMSO) at concentrations of 200 μM, 100 μM, 80 μM, 60 μM, 40 μM, 20 μM, 10 μM and 2 μM. For all these dilutions the final concentration in DMSO was 2% (see Table 1 below; volumes shown make it possible to construct dose/response curves, in triplicate, for 1 compound on a 96-well plate—FIG. 1)
50 μL of solution of compound was added at the concentrations specified above to 50 μL of cells in the plate (FIG. 1) (Final concentration of compounds in contact with the cells: 100 μM, 50 μM, 40 μM, 30 μM, 20 μM, 10 μM, 5 μM, 1 μM (in 1% of final DMSO). Final concentration of positive control: 50 μM in 1% of final DMSO. Final concentration of negative control: 1% final DMSO).
The cells were incubated for 23 to 24 hours at 37° C. in an incubator in the presence of 5% CO2 (under humid atmosphere at 95% provided by a reservoir filled with distilled water).
(§3) The test of cell viability was carried out using the Cell Titer Glo kit (Promega #G7571). After thawing of the Cell Titer Glo reagent (1 Buffer vial+1 Substrate vial per plate) protected from the light, the contents of the Buffer vial were transferred to the Substrate vial. 100 μl of Cell Titer Glo reagent was deposited on the cells treated with the compounds.
(§4) The results, which were given for each well in strokes per second (sps), were converted to percentage cell survival relative to the control 1% of DMSO, which was fixed at 100%.
(§5) The EC50 was determined as the concentration that gives 50% of the response.
(§6) Glioblastoma (WHO grade IV glioma) stem cells (TG1, TG16 and OB1) were derived from tumor samples of 3 patients at Sainte Anne Hospital (Paris, France), as previously described (48) and expanded as neurosphere cultures. In continuously proliferating cultures, neurospheres were mechanically dissociated into a single-cell suspension twice a week with 90% renewal of their culture medium. Quiescent glioblastoma stem cells were obtained by non-renewal of the culture medium for 9-16 days following cell seeding. The non-proliferating state was assessed by decreased ability of the cells to incorporate EdU (5-ethynyl-2′-deoxyuridine) using the Click-iT™ EdU Flow Cytometry Assay Kit (Invitrogen, France) according to the manufacturer's instructions. […]
(§7) Confirmed hit compounds from the primary and secondary screens were purchased from Prestwick Chemical and dissolved in DMSO to obtain 10 mM concentrated stock solutions. Hit compound validation was obtained through dose-response curves on the viability of TG1 glioblastoma stem cells under the same experimental conditions (cell density, treatment duration) as described for the primary and secondary screens. Each compound was tested in triplicate in at least three independent experiments on proliferating and quiescent glioblastoma stem TG1 cells.
(§8) The EC50 value was determined for each compound by fitting the data points according to the following equation: […]
(§9) where y represents the expected response (expressed as a percentage of cell viability), x is the chemical compound concentration, Smax and Smin are the maximum and minimum viability responses recorded, respectively, and n is the Hill coefficient. Curve fitting was performed using the Microsoft Excel Solver component.
For orientation: Cellular ATP, detected with luciferase, serves as a proxy for viable cell number.

For data set [2], the system named is proliferating TG1 glioblastoma stem cells. The data set is described as follows: ATP-Glo (Cell Titer Glo) cell viability, dose/response, proliferating TG1 cells. It counts as cell-based, human. The settings on record: 24 h; for EC50: Homo sapiens, Glioblastoma stem cell, TG1-A P, experimental protocol of Example 12, ATP-Glo; for effect on survival of proliferating TG1 cells: own culture medium. On the procedure:
The TG1 proliferating cells correspond to cells for which medium is renewed regularly, twice weekly.
The proliferating cells were put back in 1 mL of fresh NS34 medium, dissociated mechanically by pipetting up and down 100 times with a P1000 micropipette preset to 400 μl and counted with Trypan Blue, after dilution in fresh NS34 medium, to obtain a final suspension of 6×10^5 cells/mL.
as §1, §2
50 μL of solution of compound was added at the concentrations specified above to 50 μL of cells in the plate (FIG. 1) (Final concentration of compounds in contact with the cells: 100 μM, 50 μM, 40 μM, 30 μM, 20 μM, 10 μM, 5 μM, 1 μM (in 1% of final DMSO). Final concentration of positive control: 50 μM in 1% of final DMSO. Final concentration of negative control: 1% final DMSO). […]
as §3, §4, §5, §6, §7, §8, §9

For data set [3], the system named is human fetal neural stem cells (f-NSC cells). Description: ATP-Glo cell viability on fetal neural stem cells. Format: cell-based.

Turning to `Oc1ccc(C(c2ccc(O)cc2)c2cccnc2)cc1`, the EC50 in data set [1] is 8 ± 3 µM; in data set [2], above 100 µM.
Take `Oc1ccc(C(c2ccncc2)c2ccc(O)cc2)cc1`: the figures for the EC50 in data set [1] and in data set [2] were 39 ± 2 µM and above 100 µM, respectively.
The like results for `CC(=O)Oc1ccc(C(c2ccc(O)cc2)c2ccccn2)cc1` (stereo not drawn) were, in that order, 1 ± 0.5 µM and above 100 µM.
For `CC(=O)Oc1ccc(C(c2ccc(O[Si](C)(C)C(C)(C)C)cc2)c2ccccn2)cc1` (stereo not drawn), the EC50 in data set [1] is 12.1 ± 0.6 µM; in data set [2], 12 ± 0.1 µM.
For the compound `CC(C)(C)[Si](C)(C)Oc1ccc(C(c2ccc(O)cc2)c2ccccn2)cc1` (stereo not drawn), the figures for the EC50 in data set [1] and in data set [2] were 13 ± 3 µM and 13 ± 5 µM, respectively.
On to `COc1ccc(C(c2ccc(O)cc2)c2ccccn2)cc1` (stereo not drawn), for which the EC50 in data set [1] is 8 ± 6 µM; in data set [2] it was above 100 µM.
The like results for `C#CCOc1ccc(C(c2ccc(O)cc2)c2ccccn2)cc1` (stereo not drawn) were, in that order, 3 ± 1 µM and 39 ± 6 µM.
The like results for `CCCC(C)Oc1ccc(C(c2ccc(O)cc2)c2ccccn2)cc1` (stereo not drawn) were, in that order, 40 ± 10 µM and 55 ± 8 µM.
The like results for `CCCCCCCCCOc1ccc(C(c2ccc(OC(C)=O)cc2)c2ccccn2)cc1` (stereo not drawn) were, in that order, 22 ± 2 µM and 25.5 ± 0.6 µM.
As for `CCCCCCCCCOc1ccc(C(c2ccc(O)cc2)c2ccccn2)cc1` (stereo not drawn), the EC50 in data set [1] came out at 22 ± 3 µM; in data set [2], 25 ± 4 µM.
The like results for `c1ccc(C(c2ccccc2)c2ccccn2)cc1` were, in that order, 81.9 µM and above 100 µM.
Taken in the same sequence, the figures for `Nc1ncccc1C(c1ccc(O)cc1)c1ccc(O)cc1` were 32 ± 2 µM and above 100 µM.
The like results for `Clc1ccc(C(c2ccc(Cl)cc2)c2ccccn2)cc1` were, in that order, 35.5 ± 4.5 µM and 34 ± 3 µM.
For `Oc1ccc(C(c2ccccc2)c2ccc(O)cc2)cc1`, the EC50 was 14.2 ± 8.8 µM in data set [1] and 60.8 ± 10.4 µM in data set [2].
For the compound `Oc1ccc(C(c2ccccn2)c2ccccc2O)cc1` (stereo not drawn), the EC50 in data set [1] was 57.6 ± 0.7 µM; in data set [2], above 100 µM.
Consider `Oc1ccc(C(c2ccccc2)c2ccccn2)cc1` (stereo not drawn), for which the EC50 was 17.1 ± 6.3 µM in data set [1] and above 100 µM in data set [2].
The like results for `Oc1ccc(C(c2ccc(Cl)cc2)c2ccccn2)cc1` (stereo not drawn) were, in that order, 4 ± 1.4 µM and above 100 µM.
Turning to `Oc1ccc(C(c2ccc(O)cc2)c2cncc(Br)c2)cc1`, the EC50 in data set [1] is 5 µM; in data set [2] it was above 100 µM.
The like results for `Oc1ccc(C(c2ccc(C(F)(F)F)cc2)c2ccccn2)cc1` (stereo not drawn) were, in that order, 17.3 µM and above 100 µM.
For the compound `CC(=O)Oc1ccc(C(c2ccc(O)cc2)c2ccccn2)cc1` (racemic) [Compound 3, 4-((4-Hydroxyphenyl)(pyridin-2-yl)methyl)phenyl acetate], the “effect on survival of quiescent TG1 cells (words)” value in data set [1] is reported as “effect similar to that described for bisacodyl”. In addition, the “effect on survival / toxicity, f-NSC cells” value in data set [3] is recorded as “little or no effect”.
As for `CCCCCCCCNC(C)C(O)c1ccc(SC(C)C)cc1` (stereo not drawn) [Suloctidil, reference compound], the “effect on survival of quiescent TG1 cells (words)” value in data set [1] is “overlapping cytotoxic activity”. Further, in data set [2], the “effect on survival of proliferating TG1 cells” value is given as “overlapping cytotoxic activity”.
Turning to `OCCN1CCN(CC/C=C2/c3ccccc3Sc3ccc(Cl)cc32)CC1` [Zuclopenthixol HCl, reference compound], the “effect on survival of proliferating TG1 cells” value in data set [2] is on record as “more selective effects”.
Consider `CC(=O)Oc1ccc(C(c2ccc(OC(C)=O)cc2)c2ccccn2)cc1` [drawing 51], for which the half-maximal effective concentration (EC50) in data set [1] was 1.6 ± 0.3 µM; in data set [2] it was above 100 µM.
The like results for `Oc1ccc(C(c2ccc(O)cc2)c2ccccn2)cc1` [drawing 52] were, in that order, 1 ± 0.5 µM and above 100 µM.
The like results for `O=C(Oc1ccc(C(c2ccc(OC(=O)C(F)(F)F)cc2)c2ccccn2)cc1)C(F)(F)F` [drawing 57] were, in that order, 2 ± 1 µM and above 100 µM.
As to `COc1ccc(C(c2ccc(OC(C)=O)cc2)c2ccccn2)cc1` (stereo not drawn) [drawing 60], the EC50 in data set [1] is 9 ± 4 µM; in data set [2], above 100 µM.

As usually defined, the EC50 is the concentration at which the effect is half-maximal.
